# Entries after “also recorded” stand apart in the source; their conditions may differ.
# Assays:
# CD137 [1] = molecular target: T1, CD137 (Homo sapiens, UniProt Q07011); experiment: Fluorescence polarization competition binding assay, tracer BCY640 against CD137L, Urelumab, Utomilumab; set-up: purchased AcroBiosystems; details: BCY640 tracer at 1 nM, CD137 500 nM, FIGS. 2 and 3
# Procedure: The binding site of the hCD137-specific Bicycle peptide was determined by competition experiment between a fluorescent labelled CD137 binding peptide and natural ligand CD137L, agonistic antibodies Urelumab and Utomilumab. Urelumab antibody binds to a distinct binding site while CD137L and Utomilumab both bind to the site termed the ligand-binding site.
# The competitor agonists CD137L (R&D systems), Urelumab and Utomilumab were diluted in assay buffer 20 mM HEPES, 150 mM NaCl, 0.05% P20, pH7.5 to a top concentration of 500-1000 nM. The human CD137 protein (AcroBiosystems) was diluted to 500 nM final concentration in the assay. […] The assay was typically set up by adding 5 μL agonist competitor, 10 μL CD137 protein then 10 μL fluorescent peptide. The total volume of 25 μL was prepared in black walled and bottomed low binding low volume 384 well plates. Measurements were conducted on a BMG PHERAstar FS equipped with an FP 485 520 520 optic module at 25° C. with 200 flashes per well and a positioning delay of 0.1 second. Each well was measured every 5 minutes for 60 minutes. The gain was set in a well containing tracer without target protein. The mP-values at the end of the 60 minutes read were plotted against concentration of the agonists. Reduction in the mP-values indicates competition between the known agonist and the tracer peptide.
# CD137 [2] = molecular target: T1, CD137; experiment: CD137 cell activity, Promega CD137 NF-κB luciferase reporter assay in Jurkat cells, antagonism of CD137L; assay type: cell-based; set-up: host or cells: Jurkat (CD137 Jurkat reporter cells); details: co-incubation with trimeric CD137L, FIG. 1
# Procedure: The biological activity of the CD137-specific peptides was tested using the cellular CD137 luciferase reporter assay kit (Promega). The cells in this commercially available kit express luciferase that is activated down-stream of CD137. This assay can be used to assess agonism (exemplified by CD137 ligand, CD137L) and antagonism (exemplified by bicyclic peptide 74-01-04-N002).
# The Promega CD137 cell-activity assay uses NF-κB luciferase luminescence as a read-out of CD137 activation in Jurkat cells. […] Dilute and then titrate down the bicyclic peptide in a sterile 96 well-plate. […] Prepare enough reagent for duplicate samples and then perform ⅓ dilution series dilution series. Include positive control CD137L and bicyclic peptide alone. […] Add 50 μl cells/well to white cell culture plate. Add 12.5 μl bicyclic peptide (at 6× final concentration) to the cells.
# Co-incubate cells together with CD137L agonist and bicyclic peptide for 6 h at 37° C., 5% CO2. After 6 h thaw Bio-Glo™ and develop the assay at room-temperature. Add 75 μl Bio-Glo™ per well and incubate 5-10 min. Read luminescence signal on Pherastar plate-reader LUM plus models, gain 3600 using MARS software. Analyse data by calculating the percentage inhibition compared to CD137L alone. […]
# The CD137 reporter activity was determined as NF-κB promotor driven luciferase activity.
# CD137 [3] = molecular target: T1, CD137; experiment: CD137 direct binding assay (fluorescence polarisation); details: D-Alanine scan, reference BCY7151
# Procedure: Affinity of the peptides of the invention for human CD137 (Ki) was determined using a fluorescence polarisation assay, in accordance with the methods disclosed in WO 2016/067035. Peptides of the invention were labelled with a fluorescent tag (fluorescein, FI) and diluted to 2.5 nM in 50 mM HEPES with 100 mM NaCl and 0.05% tween pH 7.5. CD137 protein was titrated starting at 3 μM in the same assay buffer as the peptide to assay 1 nM peptide in a total volume of 25 μL in black walled and bottomed low bind low volume 384 well plates. The assay was typically set up by adding 5 μL assay buffer, 10 μL CD137 protein then 10 μL fluorescent peptide. The concentrations of CD137 protein were 1 in 2 serial dilutions to give 12 different concentrations starting at 3 μM. Measurements were conducted on a BMG PHERAstar FS equipped with an FP 485 520 520 optic module at 25° C. with 200 flashes per well and a positioning delay of 0.1 second. Alternatively, the measurements were performed using Envision (PerkinElmer) equipped with FITC FP Dual Enh mirror, set to 30 flashes. Each well was measured every 5 minutes for 60 minutes. The gain used for analysis was determined for each tracer at the end of the 60 minutes where there was no protein in the well. The mP were fit to a standard 1:1 binding model with a quadratic equation to generate a Kd value.
# T1 sequence (Q07011 24-255): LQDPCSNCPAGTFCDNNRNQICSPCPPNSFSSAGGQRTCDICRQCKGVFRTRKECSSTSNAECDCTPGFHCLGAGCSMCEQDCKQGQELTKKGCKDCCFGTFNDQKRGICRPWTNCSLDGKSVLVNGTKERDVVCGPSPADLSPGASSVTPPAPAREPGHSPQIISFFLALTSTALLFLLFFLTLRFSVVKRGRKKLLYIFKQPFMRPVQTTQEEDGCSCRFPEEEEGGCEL
substance,measurement,setting,value
ACIEEGQYCFADPYMCA-Sar6-K [BCY640],binding site on CD137 by competition,CD137 [1],binds to the physiologically relevant epitope that is shared with both the natural CD137 ligand (CD137L) and CD137 antibody (Utomilumab)
ACIEEGQYCFADPYMCA [BCY592],effect on CD137L activity in CD137 reporter cells,CD137 [2],can act as an antagonist that inhibits CD137L activity; also recorded: inhibited CD137L activity
[PEG3]-ACIEEaQYCFADPY(Nle)CA [BCY7297],affinity relative to the reference peptide,CD137 [3],improved affinity

# Source: US12049520B2, “Bicyclic peptide ligands specific for CD137” (priority 2017, dated 2024)
